Counter-ions that a name gives are not always drawn.
Columns and labels:
[1] = Excipient compatibility, mass spectroscopy HPLC method (% Compound 2); type: physicochemical
Excerpt: (low and high RH at both temperatures).

[2] = Excipient compatibility, UV HPLC method (degradation, impurities other than Compound 2)
Protocol: This study was performed to determine stability of Compound 1 di-tosylate salt, Form I, in combination with various oral solid dosage form excipients. […] The data of the blends were compared with a control sample (Compound 1 di-tosylate salt alone) to assess the effect of each excipient relative to Compound 1 di-tosylate salt alone.
Blends were prepared by screening the components together; aliquots were then weighed for stability testing. The binary blend samples were initially stored under accelerated conditions (50° C./dry, 50° C./75% RH) in open glass vials and analyzed by HPLC to determine the potential for drug substance degradation with each excipient. […] Analysis of a control (Compound 1 di-tosylate salt alone) was included for comparison at each condition.
Compound 1 di-tosylate salt was blended at the desired ratio of excipient to drug (see Table 7 below) by weighing each material, mixing with a spatula in a vial, and screening the mixture 5 times with an 18 mesh screen. A control sample was included for comparison to the blends. The weight equivalent of approximately 4 mg of Compound 1 di-tosylate salt was added to each glass vial and initially set-up at 50° C./dry (<20% RH) and 50° C./75% RH. Based on results after 1 week at 50° C.; additional samples were set-up at 40° C./dry and 40° C./75% RH. […] The 75% RH chamber was maintained by using a saturated sodium chloride solution in water (inside a closed chamber). The humidity of the 75% RH chamber was verified with a hygrometer (VWR brand). Samples were tested by HPLC after 1 week at 50° C. and 1 and 2 weeks at 40° C. (low and high RH at both temperatures). Data were also measured for samples at 20° C. in closed vials.
Samples were analyzed by HPLC using the method described below after dilution in 85% H2O (0.1% TFA)/15% acetonitrile to 4 mL, sonication for 5 minutes, and filtration (0.45 μm Acrodisc GHP). One injection per sample was performed at each stability station. Two methods were performed on the stability samples: a UV based HPLC method and a mass spectroscopy HPLC method performed for one impurity (Compound 2).
UV HPLC Method-Instrument: Agilent 1260 HPLC; Column: Ascentis Express C18 4.6×150 mm; Mobile Phase A: Water (0.1% TFA); Mobile Phase B: Acetonitrile (0.1% TFA); Flow Rate: 1.0 mL/min; Injection volume: 10 μL; UV Detection 214 nm; Column Temperature: 30° C.; Run Time: 33 min; Sample concentration: 1.0 mg/mL as salt; Threshold: 0.1%; Gradient Program:
Accelerated storage (50° C., 40° C.) conditions were used to identify potential drug-excipient interactions.

[3] = Crystalline form change under storage conditions; type: physicochemical; conditions: storage conditions of 25° C./60% RH and 40° C./75% RH
Protocol: (§1) Form HI of Compound 1 di-tosylate salt was prepared during the process of drying a wet sample of Compound 1 di-tosylate salt, Form I, under ambient conditions. Form I slowly absorbed atmospheric moisture and gradually changed to crystalline Form HI.
as §1, with “HI. […] Form HI can also be generated by purging humidified air (e.g., 60-85% RH) through Form I solid.” for “HI.”

[4] = DVS moisture uptake analysis; type: physicochemical
Protocol: Form DH was characterized by DVS. The DVS analysis was performed on a TA Instruments Vapor Sorption Analyzer, model VTI-SA^+. Form DH was generated by pre-drying Form HI on VTI at 40° C. with 0% RH N2 for 3 h. Then the moisture uptake profile was completed in one cycle in 5% RH increments with adsorption from 0% RH to 95% RH followed by desorption in 5% increments from 95% to […]. The equilibration criteria were 0.0010 wt % in 5 minutes with a maximum equilibration time of 180 minutes. All adsorption and desorption were performed at 25° C.

% Compound 2 ([1]; 1 w 50° C./75% RH)	% Compound 2 ([1]; 1 w 50° C./dry)	2 W 20° C. % of cmpd 2 ([1]; 20° C., 2 w, closed vials)	wt % of Compound 2 ([1]; 40° C. (dry) 1 W)	wt % of Compound 2 ([1]; 40° C. (dry) 2 W)	wt % of Compound 2 ([1]; 40° C./75% RH 1 w)	wt % of Compound 2 ([1]; 40° C./75% RH 2 w)	Compound 1 di-tosylate salt degradation (UV Method) ([2]; 1 W 40° C./75% RH)	Compound 1 di-tosylate salt degradation (UV Method) ([2]; 1 W 40° C./dry)	Compound 1 di-tosylate salt degradation (UV Method) ([2]; 1 w 50° C./75% RH, open glass vials, peak area percent)	Compound 1 di-tosylate salt degradation (UV Method) ([2]; 1 w 50° C./dry (<20% RH), open glass vials, peak area percent)	Compound 1 di-tosylate salt degradation (UV Method) ([2]; 2 W 40° C./75% RH)	Compound 1 di-tosylate salt degradation (UV Method) ([2]; 2 W 40° C./dry)	20° C. 2 w UV method ([2]; 20° C., 2 w, closed vials)	Crystalline form change on storage [3]	Hygroscopicity (DVS) ([4]; adsorption 0% RH to 95% RH, desorption 95% to 85% RH, 25° C.)	Solid collected after DVS ([4]; after DVS at 85% RH)	SMILES
2.47%	2.37%	0.43%	1.4 wt %	3.4 wt %	1.3 wt %	1.9 wt %	<0.1%	0.43%	0.3%	1.4%	<0.1%	0.86%	<0.1%	converted to Form HI	–	–	COCC1(CN[C@@H]2C[C@H]2c2ccccc2)CCN(CC2(C(=O)O)CCC2)CC1 [Cmpd 1 di-tosylate salt alone, 1-{[4-(methoxymethyl)-4-({[(1R,2S)-2-phenylcyclopropyl]amino}methyl)piperidin-1-yl]methyl}cyclobutanecarboxylic acid bis(4-methylbenzenesulfonate)]
–	–	–	–	–	–	–	–	–	–	–	–	–	–	–	hygroscopic	Form HI	COCC1(CN[C@@H]2C[C@H]2c2ccccc2)CCN(CC2(C(=O)O)CCC2)CC1 [Form DH]

Reference: patent publication US10166221B2, “Formulations of an LSD1 inhibitor” (Incyte Corporation, priority 2016, dated 2019)
